Results published in US20040043914A1, “Sustained release antimicrobial composition including a partially halogenated hydantoin and a colorant” (LONZA INC., priority 2002, published 2004).

Assay: Total chlorine yield upon dissolution
Type: physicochemical
Source text: The partially halogenated hydantoin is preferably monochloro-5,5-dimethyl hydantoin (MCDMH). MCDMH yields about 43% of its weight in total chlorine upon dissolution.

In the case of “monochloro-5,5-dimethyl hydantoin [MCDMH]”, the “total chlorine yielded upon dissolution” value is reported as “about 43 % of its weight”.
